Counter-ions that a name gives are not always drawn.
Assays:
[1] = system: longitudinal muscle of human vas deferens; experiment: Inhibition at fixed concentration of contractions evoked by high K+ in the presence of FPL 64176, longitudinal muscle; details: drug 10 μM; for inhibition at 10 µM: Homo sapiens, [K+]o 120 mM in the presence of FPL 64176
Text: (§1) Human vas deferens specimens were obtained after elective vasectomies of healthy fertile men. College ethical approval and the consent of patients were obtained. The specimens were placed in ice-cold Krebs' medium, dissected-free of connective tissue/blood vessels and cut longitudinally into strips (longitudinal muscle preparations; 5-10 mm long & 1 mm wide) or transversely into rings (circular muscle preparations; 3 mm in length). The longitudinal and circular muscle preparations were then set up for tension recording (resting tension 5-7 mN) in a Perspex chamber superfused at 2 ml per min with Krebs' medium (36° C.) composed of (mM): NaCl, 118.8; NaHCO3, 25; KCl, 4.7; CaCl2.2H2O, 2.5; KH2PO4, 1.2; MgSO4.7H2O, 1.2; glucose, 11.1; ascorbic acid 0.1 and continuously gassed with 95% O2 and 5% CO2. Contractile responses were recorded via a Harvard-type force-displacement transducer. The analog signals were digitised using CIO-Das 16/Jr data acquisition software (Amplicon Liveline, Brighton, UK) and re-plotted on a microcomputer.
Tissues were equilibrated for 180 min in Krebs' medium containing inhibitors of extraneuronal and neuronal reuptake of noradrenaline, oestradiol (1 μM) and desipramine (0.1 μM) respectively, inhibitors of catechol-O-methyltransferase and monoamine oxidase, tropolone (10 μM) and iproniazid (10 μM) respectively and the β-adrenoceptor blocker, propranolol (1 μM). At the end of the equilibration period, the tissues were stimulated with noradrenaline (100 μM). […] After a contact time of 30-40 min in this medium, different experimental protocols (described below) were adopted in order to • (a) Elucidate the contractile actions of L-type Ca^2+ agonists such as FPL 64176 or Bay K 8644. In these experiments, tissues were exposed to FPL 64176 (0.1-10 μM added cumulatively) or in separate experiments Bay K 8644 (0.1-10 μM added cumulatively). • (b) Investigate the effects of various diphenylalkylamines and conventional L-type Ca^2+ antagonists (methoxyverapamil or nifedipine) on contractions evoked by high concentrations of extracellular potassium (high [K^+]o) in the presence of L-type Ca^2+ agonists, FPL 64176 (1 μM) or Bay K 8644 (1 μM). In this protocol, tissues were stimulated with high [K^+]O (10, 30 and 120 mM at 10-15 min intervals) in normal Krebs' medium, then exposed to L-type Ca^2+ agonists for 20-30 min and subsequently stimulated with high [K^+]O (10, 30 and 120 mM) in the presence of the drugs. These provided the initial responses. […] The resulting contractions were measured (see below) and expressed as a percentage of corresponding initial responses to high [K^+]o evoked in the presence of L-type Ca^2+ agonists (i.e. before exposure to L-type Ca^2+ antagonists). […]

[2] = system: circular muscle of human vas deferens; experiment: Inhibition at fixed concentration of contractions evoked by high K+ in the presence of FPL 64176, circular muscle; details: drug 10 μM; for inhibition at 10 µM: Homo sapiens, [K+]o 120 mM in the presence of FPL 64176
Text: as §1
Tissues were equilibrated for 180 min in Krebs' medium containing inhibitors of extraneuronal and neuronal reuptake of noradrenaline, oestradiol (1 μM) and desipramine (0.1 μM) respectively, inhibitors of catechol-O-methyltransferase and monoamine oxidase, tropolone (10 μM) and iproniazid (10 μM) respectively and the β-adrenoceptor blocker, propranolol (1 μM). At the end of the equilibration period, the tissues were stimulated with noradrenaline (100 μM). […] After a contact time of 30-40 min in this medium, different experimental protocols (described below) were adopted in order to • (a) Elucidate the contractile actions of L-type Ca^2+ agonists such as FPL 64176 or Bay K 8644. In these experiments, tissues were exposed to FPL 64176 (0.1-10 μM added cumulatively) or in separate experiments Bay K 8644 (0.1-10 μM added cumulatively). • (b) Investigate the effects of various diphenylalkylamines and conventional L-type Ca^2+ antagonists (methoxyverapamil or nifedipine) on contractions evoked by high concentrations of extracellular potassium (high [K^+]o) in the presence of L-type Ca^2+ agonists, FPL 64176 (1 μM) or Bay K 8644 (1 μM). In this protocol, tissues were stimulated with high [K^+]O (10, 30 and 120 mM at 10-15 min intervals) in normal Krebs' medium, then exposed to L-type Ca^2+ agonists for 20-30 min and subsequently stimulated with high [K^+]O (10, 30 and 120 mM) in the presence of the drugs. These provided the initial responses. Following this and in the continuous presence of the L-type Ca^2+ agonists, the tissues were exposed additionally to L-type Ca^2+ antagonists (conventional or diphenylalkylamines) or drug-free vehicle medium. After contact times of 25-50 min the tissues were stimulated, first with high [K^+]O (either 30 mM or 120 mM) in order to take account of the well-documented use-dependent action of the diphenylalkylamine Ca^2+ antagonists. Following recovery from the test contraction and after a further 30-40 min, the tissues were then stimulated with high [K^+]o (10, 30 and 120 mM). This protocol is illustrated in FIGS. 3 and 4. The resulting contractions were measured (see below) and expressed as a percentage of corresponding initial responses to high [K^+]o evoked in the presence of L-type Ca^2+ agonists (i.e. before exposure to L-type Ca^2+ antagonists). […]

[3] = system: longitudinal muscle of human vas deferens; experiment: IC50 against contractions evoked by high K+ (120 mM) in the presence of FPL 64176, longitudinal muscle strips; details: contractions evoked by K+ (120 mM) in the presence of FPL 64176 (1 μM), means ± S.E.M.
Text: as §1
(§2) Tissues were equilibrated for 180 min in Krebs' medium containing inhibitors of extraneuronal and neuronal reuptake of noradrenaline, oestradiol (1 μM) and desipramine (0.1 μM) respectively, inhibitors of catechol-O-methyltransferase and monoamine oxidase, tropolone (10 μM) and iproniazid (10 μM) respectively and the β-adrenoceptor blocker, propranolol (1 μM). At the end of the equilibration period, the tissues were stimulated with noradrenaline (100 μM). […] After a contact time of 30-40 min in this medium, different experimental protocols (described below) were adopted in order to • (a) Elucidate the contractile actions of L-type Ca^2+ agonists such as FPL 64176 or Bay K 8644. In these experiments, tissues were exposed to FPL 64176 (0.1-10 μM added cumulatively) or in separate experiments Bay K 8644 (0.1-10 μM added cumulatively). • (b) Investigate the effects of various diphenylalkylamines and conventional L-type Ca^2+ antagonists (methoxyverapamil or nifedipine) on contractions evoked by high concentrations of extracellular potassium (high [K^+]o) in the presence of L-type Ca^2+ agonists, FPL 64176 (1 μM) or Bay K 8644 (1 μM). In this protocol, tissues were stimulated with high [K^+]O (10, 30 and 120 mM at 10-15 min intervals) in normal Krebs' medium, then exposed to L-type Ca^2+ agonists for 20-30 min and subsequently stimulated with high [K^+]O (10, 30 and 120 mM) in the presence of the drugs. These provided the initial responses. Following this and in the continuous presence of the L-type Ca^2+ agonists, the tissues were exposed additionally to L-type Ca^2+ antagonists (conventional or diphenylalkylamines) or drug-free vehicle medium. After contact times of 25-50 min the tissues were stimulated, first with high [K^+]O (either 30 mM or 120 mM) in order to take account of the well-documented use-dependent action of the diphenylalkylamine Ca^2+ antagonists. Following recovery from the test contraction and after a further 30-40 min, the tissues were then stimulated with high [K^+]o (10, 30 and 120 mM). This protocol is illustrated in FIGS. 3 and 4. The resulting contractions were measured (see below) and expressed as a percentage of corresponding initial responses to high [K^+]o evoked in the presence of L-type Ca^2+ agonists (i.e. before exposure to L-type Ca^2+ antagonists). […] Subsequent analysis (see below) was between contractions of drug-treated tissues and time-matched controls • (c) Determine the inhibitory potencies (IC50 values) of various diphenylalkylamines and phenothiazines and conventional L-type Ca^2+ antagonists (nifedipine and methoxyverapamil) against contractions evoked in longitudinal and circular muscle of human vas deferens by high [K^+]o (120 mM) in the presence of FPL 64176. In these experiments, tissues were stimulated with high [K^+]o (120 mM); sequentially in normal Krebs' medium and after 25-30 min exposure to the L-type Ca^2+ agonist, FPL 64176, (1 μM, Initial response). […]

[4] = system: circular muscle of human vas deferens; experiment: IC50 against contractions evoked by high K+ (120 mM) in the presence of FPL 64176, circular muscle rings; details: contractions evoked by K+ (120 mM) in the presence of FPL 64176 (1 μM), means ± S.E.M.
Text: as §1, §2

[5] = system: longitudinal muscle of human vas deferens; experiment: New molecules against contractions to high K+ (120 mM), longitudinal muscle; details: for IC50: Homo sapiens, contractions evoked by K+ (120 mM), preliminary data, mean, n=2-3, read-out: Functional inhibitory potencies (IC50 values), Longitudinal muscle; for Selectivity [(C/L)-1]: longitudinal muscle selectivity from IC50 values in circular and longitudinal muscle, K+ (120 mM); for relative effectiveness against longitudinal and circular muscle contractions: contractions evoked by high [K+]o
Text: as §1, with “preparations; 5-8” for “preparations; 5-10”, “preparations; ˜3” for “preparations; 3”, “a Harvard type” for “a Harvard-type”
(§3) Tissues were equilibrated for 180 min in Krebs' medium containing inhibitors of extraneuronal and neuronal reuptake of noradrenaline, oestradiol (1 μM) and desipramine (0.1 μM) respectively, inhibitors of catechol-O-methyltransferase and monoamine oxidase, tropolone (10 μM) and iproniazid (10 μM) respectively and the β-adrenoceptor blocker, propranolol (1 μM). At the end of the equilibration period, the tissues were stimulated with noradrenaline (100 μM). […] After 40-45 min in this medium the tissues were stimulated with high [K^+]O (120 mM, Initial response). This was followed by exposure to cumulative concentrations of the new molecules {NIBA(1)XC1, NIBA(14)XN10, NIBA(6)XN3, NIBA(2)XC2, NIBA(53)XN16} or to Krebs' medium containing drug vehicles (time-matched controls). After contact times of 40-60 min at each drug concentration, the tissues were stimulated with high [K^+]o (120 mM). The resulting contractions were measured using computer software developed in-house to measure the total response (i.e. rhythmic activity plus tonic contraction). Contractions obtained in the presence of the new drug molecules were expressed as a percentage of the initial contraction evoked by high [K^+]o (120 mM) before exposure to the drugs.

[6] = system: circular muscle of human vas deferens; experiment: New molecules against contractions to high K+ (120 mM), circular muscle; details: contractions evoked by K+ (120 mM), preliminary data, mean, n=2-3, read-out: Functional inhibitory potencies (IC50 values), Circular muscle
Text: as §1, with “preparations; 5-8” for “preparations; 5-10”, “preparations; ˜3” for “preparations; 3”, “a Harvard type” for “a Harvard-type”
as §3

[7] = system: sperm emission in patients; details: cited from earlier work
[8] = [K+]o 30 mM in the presence of FPL 64176 (1.0 μM)

Q: Which inhibition at 10 µM [1] does the source give for `Fc1ccc(C(c2ccc(F)cc2)N2CCN(C/C=C/c3ccccc3)CC2)cc1` [Flunarizine, flunarizine dihydrochloride] here?
A: 40 to 44%

Q: And the “inhibition of longitudinal muscle contractions compared to time-matched controls” value [1, 8]?
A: 20-30%

Q: And the inhibition at 10 µM [2]?
A: 40 to 44%

Q: What about the “inhibition of circular muscle contractions compared to time-matched controls” value [2, 8] of the same compound?
A: 20-30%

Q: Which results are given for `O=c1[nH]c2ccccc2n1C1CCN(CCCC(c2ccc(F)cc2)c2ccc(F)cc2)CC1` [Pimozide, pimozide]?
A: IC50 ([3]; Homo sapiens): 4.4 ± 0.6 µM; IC50 ([4]; Homo sapiens): 8.9 ± 3.1 µM; inhibition at 10 µM [1]: 71%; inhibition at 10 µM [2]: 55%

Q: Which results are given for `CN1CCCC1CCN(c1ccccc1)c1ccccc1` (stereo not drawn) [NIBA(53)XN16]?
A: IC50 [5]: 4.5 µM; Selectivity [(C/L)-1] [5]: 1.4; IC50 [6]: 11 µM

Q: Which “time to inhibition of sperm emission after drug administration” value ([7]; even at sub therapeutic doses) does the source give for `CSc1ccc2c(c1)N(CCC1CCCCN1C)c1ccccc1S2` (stereo not drawn) [Thioridazine, thioridazine hydrochloride] here?
A: ≤ 24 h

Q: Which IC50 [3] does the source give for `CN1CCCCC1CCN1c2ccccc2Sc2ccc(S(C)(=O)=O)cc21` (stereo not drawn) [Sulphoridazine, sulphoridazine] here?
A: 15.9 ± 2.9 µM

Q: What about the IC50 [4] of the same compound?
A: 14.1 ± 4.9 µM

Q: Which results are given for `CN1CCCCC1CCN(c1ccccc1)c1ccccc1` (stereo not drawn) [NIBA(6)XN3]?
A: IC50 [5]: 6.25 µM; relative effectiveness against longitudinal and circular muscle contractions [5]: more effective against longitudinal than circular muscle contractions; Selectivity [(C/L)-1] [5]: >3.8; IC50 [6]: > 30 µM

Q: What does the source list for `CC(COc1ccccc1)N(CCCl)Cc1ccccc1` (stereo not drawn) [PBZ, phenoxybenzamine]?
A: effect on sperm emission (contraceptive side effect) ([7]; clinical studies): reversibly inhibit sperm emission; effects on libido, erection, orgasmic sensation, blood pressure, hormonal balance ([7]; clinical studies): without effects on libido, penile erection, orgasmic sensation and more importantly blood pressure or hormonal balance

Q: Which results are given for `CC1CCCCN1CCC(c1ccccc1)c1ccccc1` (stereo not drawn) [NIBA(2)XC2]?
A: IC50 [5]: 3 µM; relative effectiveness against longitudinal and circular muscle contractions [5]: more effective against longitudinal than circular muscle contractions; Selectivity [(C/L)-1] [5]: 2.69; IC50 [6]: 11.1 µM

Source: patent US8927579B2, “Male contraceptive” (priority 2007, dated 2015)
